Columns and labels:
Format in all cases: biochemical
PAK3 = PAK3 (Homo sapiens, UniProt O75914); assay: Z'Lyte fluorescence-based (FRET) PAK kinase assay, PAK3; conditions: 100 μM ATP
Description: (§1) A fluorescence-based assay format is used to determine IC50 values of test compounds in vitro. Purified PAK kinase is incubated with ATP, and a test compound at various concentrations and a substrate peptide containing two fluorophores. In a second step, the reaction mix is incubated with a site-specific protease that cleaves non-phosphorylated bat not phosphorylated substrate peptide, disrupting the FRET signal generated by the two fluorophores in the cleaved peptide (Z′Lyte™ Kinase assay platform; Life Technologies).
(§2) Reagents: 50 mM HEPES, pH 7.5; 0.01% BRIJ-35; 10 nM MgCl1; 1 mM EGTA, 2 uM substrate peptide Ser/Thr20 (proprietary Life Technologies Sequence), PAK enzyme [2.42-30.8 ng for PAK1, 0.29-6 ng for PAK2, 1.5-20 ng for PAK3 and 0.1-0.86 ng for PAK4; actual enzyme amounts depend on lot activity of the enzyme preparation]
(§3) Test compounds are dissolved in DMSO at various concentrations; the final DMSO concentration in the assay reaction is 1%.
(§4) ATP concentration at Kin apparent is used in the assay [50 ┌M ATP for PAK1 assay, 75 ┌M ATP for PAK2 assay, 100 μM ATP for PAK3 assay, 5 μM ATP for PAK4 assay] in a total assay volume of 10 μl. Assay reactions are incubated at room temperature for 1 hr. Following the kinase reaction, 5 μl of 1:256 dilution of development solution A (Life Technologies) is added and the reaction mix is incubated for an additional 1 hr at room temperature.
(§5) Plates are analyzed in a standard fluorescence plate reader (Tecan or equivalent) using an excitation wavelength of 400 nn and emission wavelengths of 445 nm and 520 nm.
(§6) Inhibition of kinase reaction is determined by emission ratio=emission@445 nm/emission@520 nm
as §1, with “non-phosphorylated but” for “non-phosphorylated bat”, “peptide (Z'Lyte™” for “peptide (Z′Lyte™”, “assay platform” for “assay platform;”
as §2, with “mM MgCl2;” for “nM MgCl1;”
as §4, with “at Km” for “at Kin”, “[50 μMATP” for “[50 ┌M ATP”, “75 µM” for “75 ┌M”, “[…]” for “10 μl.”, “kinase reaction.” for “kinase reaction,”, “[…]” for “5 μl”
(§7) Plates are analyzed in a standard fluorescence plate reader (Teem or equivalent) using an excitation wavelength of 400 nm and emission wavelengths of 445 nm and 520 nm.

PAK4 = PAK4 (Homo sapiens, UniProt O96013); assay: Z'Lyte fluorescence-based (FRET) PAK kinase assay, PAK4; conditions: 5 μM ATP
Description: as §1, §2, §3, §4, §5, §6
as §1, with “non-phosphorylated but” for “non-phosphorylated bat”, “peptide (Z'Lyte™” for “peptide (Z′Lyte™”, “assay platform” for “assay platform;”
as §2, with “mM MgCl2;” for “nM MgCl1;”
as §4, with “at Km” for “at Kin”, “[50 μMATP” for “[50 ┌M ATP”, “75 µM” for “75 ┌M”, “[…]” for “10 μl.”, “kinase reaction.” for “kinase reaction,”, “[…]” for “5 μl”
as §7

PAK1 = PAK1 (Homo sapiens, UniProt Q13153); assay: Z'Lyte fluorescence-based (FRET) PAK kinase assay, PAK1; conditions: 50 μM ATP
Description: as §1, §2, §3, §4, §5, §6
as §1, with “non-phosphorylated but” for “non-phosphorylated bat”, “peptide (Z'Lyte™” for “peptide (Z′Lyte™”, “assay platform” for “assay platform;”
as §2, with “mM MgCl2;” for “nM MgCl1;”
as §4, with “at Km” for “at Kin”, “[50 μMATP” for “[50 ┌M ATP”, “75 µM” for “75 ┌M”, “[…]” for “10 μl.”, “kinase reaction.” for “kinase reaction,”, “[…]” for “5 μl”
as §7

PAK2 = PAK2 (Homo sapiens, UniProt Q13177); assay: Z'Lyte fluorescence-based (FRET) PAK kinase assay, PAK2
Description: as §1, §2, §3, §4, §5, §6
as §1, with “non-phosphorylated but” for “non-phosphorylated bat”, “peptide (Z'Lyte™” for “peptide (Z′Lyte™”, “assay platform” for “assay platform;”
as §2, with “mM MgCl2;” for “nM MgCl1;”
as §4, with “at Km” for “at Kin”, “[50 μMATP” for “[50 ┌M ATP”, “75 µM” for “75 ┌M”, “[…]” for “10 μl.”, “kinase reaction.” for “kinase reaction,”, “[…]” for “5 μl”
as §7

[1] = Table 1 of Example 100, 75 μM ATP
[2] = Table 1 of Example 29 (own compound numbering)
[3] = Table 1 of Example 29 (own compound numbering), 75 µM ATP

Chain of PAK4 (O96013 whole entry): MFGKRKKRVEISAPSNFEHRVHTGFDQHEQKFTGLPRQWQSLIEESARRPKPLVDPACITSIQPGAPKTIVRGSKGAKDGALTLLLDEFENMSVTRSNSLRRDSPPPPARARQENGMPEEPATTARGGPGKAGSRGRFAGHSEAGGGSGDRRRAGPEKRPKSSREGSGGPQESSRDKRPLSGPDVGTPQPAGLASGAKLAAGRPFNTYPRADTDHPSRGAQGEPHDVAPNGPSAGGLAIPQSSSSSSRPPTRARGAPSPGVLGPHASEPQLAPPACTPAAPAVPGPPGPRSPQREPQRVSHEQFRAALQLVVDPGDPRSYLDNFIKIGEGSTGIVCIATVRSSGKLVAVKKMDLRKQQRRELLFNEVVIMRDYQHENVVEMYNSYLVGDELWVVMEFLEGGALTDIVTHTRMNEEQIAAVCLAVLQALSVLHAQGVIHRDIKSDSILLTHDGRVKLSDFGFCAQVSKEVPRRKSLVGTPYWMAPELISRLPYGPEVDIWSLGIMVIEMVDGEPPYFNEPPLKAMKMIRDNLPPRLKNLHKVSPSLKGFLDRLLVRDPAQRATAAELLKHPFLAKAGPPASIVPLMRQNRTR
Chain of PAK3 (O75914 whole entry): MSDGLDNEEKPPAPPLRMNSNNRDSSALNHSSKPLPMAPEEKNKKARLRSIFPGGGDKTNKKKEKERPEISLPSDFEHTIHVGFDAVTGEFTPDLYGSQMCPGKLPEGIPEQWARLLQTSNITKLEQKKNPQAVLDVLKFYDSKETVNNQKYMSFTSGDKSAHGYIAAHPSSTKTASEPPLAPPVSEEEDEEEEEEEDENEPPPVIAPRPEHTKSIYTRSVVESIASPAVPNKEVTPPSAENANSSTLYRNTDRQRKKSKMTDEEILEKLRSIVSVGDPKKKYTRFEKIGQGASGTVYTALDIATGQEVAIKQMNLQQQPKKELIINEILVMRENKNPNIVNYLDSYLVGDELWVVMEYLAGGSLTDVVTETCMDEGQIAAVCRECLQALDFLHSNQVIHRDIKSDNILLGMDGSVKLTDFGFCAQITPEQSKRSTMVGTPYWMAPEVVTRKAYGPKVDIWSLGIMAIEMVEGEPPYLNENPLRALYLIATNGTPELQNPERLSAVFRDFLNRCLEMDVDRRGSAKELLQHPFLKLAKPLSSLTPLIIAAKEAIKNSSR
Chain of PAK1 (Q13153 whole entry): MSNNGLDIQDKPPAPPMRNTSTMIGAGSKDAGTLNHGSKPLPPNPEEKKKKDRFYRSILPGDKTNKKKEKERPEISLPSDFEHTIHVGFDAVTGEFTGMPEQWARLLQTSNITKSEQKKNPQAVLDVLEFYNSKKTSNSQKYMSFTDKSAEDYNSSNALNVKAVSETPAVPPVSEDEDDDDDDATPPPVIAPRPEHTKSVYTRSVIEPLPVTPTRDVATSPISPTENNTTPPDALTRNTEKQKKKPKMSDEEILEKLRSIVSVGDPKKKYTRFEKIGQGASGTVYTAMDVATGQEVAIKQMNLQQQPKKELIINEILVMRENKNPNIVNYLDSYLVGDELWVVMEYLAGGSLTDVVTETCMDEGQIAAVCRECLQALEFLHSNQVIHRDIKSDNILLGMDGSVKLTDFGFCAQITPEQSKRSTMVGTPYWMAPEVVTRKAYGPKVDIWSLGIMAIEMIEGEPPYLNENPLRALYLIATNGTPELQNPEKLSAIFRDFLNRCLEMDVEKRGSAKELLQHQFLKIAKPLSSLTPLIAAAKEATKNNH
Chain of PAK2 (Q13177 whole entry): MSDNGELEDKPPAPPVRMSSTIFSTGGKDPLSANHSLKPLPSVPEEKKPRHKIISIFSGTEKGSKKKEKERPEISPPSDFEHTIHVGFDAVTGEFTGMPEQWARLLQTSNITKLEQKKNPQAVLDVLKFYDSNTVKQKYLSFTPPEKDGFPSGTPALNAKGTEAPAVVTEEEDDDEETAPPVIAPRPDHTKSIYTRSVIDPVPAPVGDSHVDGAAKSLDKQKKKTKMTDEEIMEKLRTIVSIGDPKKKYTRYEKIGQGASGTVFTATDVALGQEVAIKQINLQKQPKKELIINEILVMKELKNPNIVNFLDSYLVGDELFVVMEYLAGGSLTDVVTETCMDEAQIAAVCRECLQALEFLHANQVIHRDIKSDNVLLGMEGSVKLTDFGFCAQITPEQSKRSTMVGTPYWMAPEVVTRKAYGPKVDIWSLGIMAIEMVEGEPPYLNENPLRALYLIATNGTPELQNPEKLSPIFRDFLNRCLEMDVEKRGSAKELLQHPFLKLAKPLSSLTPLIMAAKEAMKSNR

Compound | IC50 (PAK3; Table 1 of Example 100) [µM] | IC50 (PAK4; Table 1 of Example 100) [µM] | IC50 (PAK1; Table 1 of Example 100) [µM] | IC50 (PAK2; [1]) [µM] | IC50 (PAK3; [2]) [µM] | IC50 (PAK4; [2]) [µM] | IC50 (PAK1; [2]) [µM] | IC50 (PAK2; [3]) [µM]
Cc1ccc(C)c(Cn2c(=O)ccc3cnc(Nc4ccc(N5CCN(C)CC5)cc4)nc32)c1 [Compound 46] | 1 to 10 | 1 to 10 | 1 to 10 | 1 to 10 |  |  |  | 
O=c1c(-c2ccccc2)cc2cnc(Nc3ccc(NC4CCCNC4)cc3)nc2n1Cc1ccccc1C(F)(F)F (stereo not shown) [Compound 167] |  |  |  |  | < 1 | 1 to 10 | < 1 | < 1
O=c1c(-c2ccccc2)cc2cnc(Nc3ccc(NC4CCCNC4)cc3)nc2n1Cc1ccccc1C(F)(F)F (stereo not shown) [compound 95] | < 1 | 1 to 10 | < 1 | < 1 |  |  |  | 
CN1CCCC(Nc2ccc(Nc3ncc4ccc(=O)n(Cc5ccccc5C(F)(F)F)c4n3)cc2)C1 (stereo not shown) [Compound 115] |  |  |  |  | < 1 | < 1 | < 1 | < 1
O=c1c(-c2ccccc2)cc2cnc(Nc3ccc(N4CCNCC4)cc3)nc2n1Cc1ccccc1C(F)(F)F [compound 94] | < 1 | 1 to 10 | < 1 |  |  |  |  | 
CN1CCN(c2ccc(Nc3ncc4ccc(=O)n(Cc5ccccc5SC(F)(F)F)c4n3)cc2)CC1 [Compound 43] | < 1 | < 1 | < 1 | < 1 |  |  |  | 
CN1CCN(c2ccc(Nc3ncc4ccc(=O)n(C5CCc6ccccc6C5)c4n3)cc2)CC1 (stereo not shown) [Compound 18] | < 1 | < 1 | < 1 | < 1 |  |  |  | 
CN1CCN(c2ccc(Nc3ncc4ccc(=O)n(C5CCC(C)(C)c6ccccc65)c4n3)cc2)CC1 (stereo not shown) [Compound 20] | 1 to 10 | 1 to 10 | < 1 | < 1 |  |  |  | 
Cc1cc(Nc2nccc(-c3ccc(NCCN)nc3)n2)ccc1N1CCN(C)CC1 [compound 83] | 1 to 10 | < 1 | < 1 |  |  |  |  | 
CN1CCN(c2ccc(Nc3ncc4ccc(=O)n(Cc5c(O)cccc5Cl)c4n3)cc2)CC1 [Compound 109] |  |  |  |  | 1 to 10 | < 1 | < 1 | < 1
CN1CCN(c2ccc(Nc3ncc4ccc(=O)n(Cc5c(F)cccc5C(F)(F)F)c4n3)cc2)CC1 [Compound 112] |  |  |  |  | < 1 | < 1 | < 1 | 
Cc1cccc(O)c1Cn1c(=O)ccc2cnc(Nc3ccc(N4CCN(C)CC4)cc3)nc21 [Compound 119] |  |  |  |  | 1 to 10 | < 1 | < 1 | 1 to 10
CN1CCN(c2ccc(Nc3ncc4ccc(=O)n([C@@H]5CCCc6ccccc65)c4n3)cc2)CC1 [Compound 10] | 1 to 10 | 1 to 10 | 1 to 10 | 1 to 10 |  |  |  | 
CN1CCN(c2ccc(Nc3ncc4ccc(=O)n(Cc5ccccc5-n5cccn5)c4n3)cc2)CC1 [Compound 53] | 1 to 10 | 1 to 10 | < 1 | 1 to 10 |  |  |  | 
COc1ccc(F)cc1Cn1c(=O)ccc2cnc(Nc3ccc(N4CCN(C)CC4)cc3)nc21 [Compound 108] |  |  |  |  | 1 to 10 | 1 to 10 | < 1 | 1 to 10
CN1CCN(c2ccc(Nc3ncc4ccc(=O)n(Cc5ccccc5-n5cccn5)c4n3)cc2)CC1 [Compound 107] |  |  |  |  | 1 to 10 | 1 to 10 | < 1 | 1 to 10
CN1CCN(c2ccc(Nc3ncc4ccc(=O)n(Cc5ccccc5-c5ncno5)c4n3)cc2)CC1 [Compound 127] |  |  |  |  | 1 to 10 | 1 to 10 | < 1 | 1 to 10
O=c1ccc2cnc(Nc3ccc(N4CCNCC4)c(F)c3)nc2n1Cc1c(Cl)cccc1C1CC1 [Compound 137] |  |  |  |  | < 1 | 1 to 10 | < 1 | 
CN1CCN(c2ccc(Nc3ncc4ccc(=O)n(CC(=O)c5ccccc5)c4n3)cc2)CC1 [Compound 104] |  |  |  |  | 1 to 10 | 1 to 10 | 1 to 10 | 1 to 10

Compound | IC50 (PAK3; Table 1 of Example 100) [µM] | IC50 (PAK4; Table 1 of Example 100) [µM] | IC50 (PAK1; Table 1 of Example 100) [µM] | IC50 (PAK2; [1]) [µM] | IC50 (PAK3; [2]) [µM] | IC50 (PAK4; [2]) [µM] | IC50 (PAK1; [2]) [µM] | IC50 (PAK2; [3]) [µM]
Cc1cc(Nc2nccc(-c3ccc(NCCN)nc3)n2)ccc1N1CCN(C)CC1 [Compound 152] |  |  |  |  | 1 to 10 | < 1 | < 1 | 
COc1ccc(F)cc1Cn1c(=O)ccc2cnc(Nc3ccc(N4CCN(C)CC4)cc3)nc21 [Compound 54] | 1 to 10 | 1 to 10 | < 1 | 1 to 10 |  |  |  | 
CN1CCN(c2ccc(Nc3ncc4ccc(=O)n(CC(=O)c5ccccc5)c4n3)cc2)CC1 [Compound 50] | 1 to 10 | 1 to 10 | 1 to 10 | 1 to 10 |  |  |  | 
CN1CCN(c2ccc(Nc3ncc4ccc(=O)n(Cc5ccccc5OC(F)F)c4n3)cc2)CC1 [Compound 44] | < 1 | < 1 | < 1 | < 1 |  |  |  | 
COc1cccc(Cn2c(=O)ccc3cnc(Nc4ccc(N5CCN(C)CC5)cc4)nc32)c1 [Compound 33] |  | > 10 | 1 to 10 | > 10 |  |  |  | 
O=c1ccc2cnc(Nc3ccc(N4CCNCC4)c(F)c3)nc2n1Cc1ccccc1-c1ncno1 [Compound 132] |  |  |  |  | 1 to 10 | 1 to 10 | < 1 | 1 to 10
O=c1ccc2cnc(Nc3ccc(N4CCNCC4)cc3)nc2n1C1CCCc2ccccc21 (stereo not shown) [compound 61] |  |  |  |  | 1 to 10 | 1 to 10 | 1 to 10 | 1 to 10
CC(c1ccccc1)n1c(=O)ccc2cnc(Nc3ccc(N4CCN(C)CC4)cc3)nc21 (stereo not shown) [Compound 102] |  |  |  |  | > 10 | 1 to 10 | 1 to 10 | 1 to 10
COc1ccccc1Cn1c(=O)ccc2cnc(Nc3ccc(N4CCN(C)CC4)cc3)nc21 [Compound 34] |  | 1 to 10 | < 1 | 1 to 10 |  |  |  | 
O=c1ccc2cnc(Nc3ccc(OC4CCNCC4)cc3)nc2n1Cc1ccccc1C(F)(F)F [Compound 12] | < 1 | < 1 | < 1 | < 1 |  |  |  | 
CN1CCN(c2ccc(Nc3ncc4ccc(=O)n(CCc5ccccc5)c4n3)cc2)CC1 [Compound 49] | 1 to 10 | < 1 | < 1 | < 1 |  |  |  | 
CN1CCN(c2ccc(Nc3ncc4ccc(=O)n(Cc5ccccc5OC(F)(F)F)c4n3)cc2)CC1 [compound 97] |  |  |  |  | < 1 | < 1 |  | 
CN1CCN(c2ccc(Nc3ncc4ccc(=O)n(Cc5c(F)cccc5C(F)(F)F)c4n3)cc2)CC1 [compound 58] | < 1 | < 1 | < 1 |  |  |  |  | 
CN1CCN(c2ccc(Nc3ncc4ccc(=O)n(Cc5ccccc5OC(F)(F)F)c4n3)cc2)CC1 [Compound 41] |  | 1 to 10 | < 1 | < 1 |  |  |  | 
O=c1c(-c2ccccc2)cc2cnc(Nc3ccc(N4CCNCC4)cc3)nc2n1Cc1ccccc1C(F)(F)F [Compound 163] |  |  |  |  | < 1 | 1 to 10 | < 1 | 
CN1CCN(c2ccc(Nc3ncc4ccc(=O)n(Cc5ccccc5F)c4n3)cc2)CC1 [Compound 35] |  | 1 to 10 | 1 to 10 | 1 to 10 |  |  |  | 
CSc1cccc(F)c1Cn1c(=O)ccc2cnc(Nc3ccc(N4CCN(C)CC4)cc3)nc21 [compound 99] | < 1 | < 1 | < 1 |  |  |  |  | 
CN1CCN(c2ccc(Nc3ncc4ccc(=O)n(Cc5ccncc5)c4n3)cc2)CC1 [Compound 37] |  | > 10 | 1 to 10 | > 10 |  |  |  | 
CSc1cccc(F)c1Cn1c(=O)ccc2cnc(Nc3ccc(N4CCN(C)CC4)cc3)nc21 [Compound 138] |  |  |  |  | < 1 | < 1 | < 1 | 
